Assay results taken from ChEMBL document CHEMBL1201862, “PubChem BioAssay data set” (2004).
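Where inhibition never reached the appropriate level, the endpoint shown equals the highest concentration tested. Otherwise, values were interpolated linearly from a five-concentration, 48-hour dose response in 96-well plates. At the GI50, growth is halved.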 Activity calls are given as the source filed them. Rule as the data show it: active = GI50 up to about 1.1 µM and inactive = higher. Where a SMILES comes first, the peptide text is derived from it.

Legend:
Assay in all cases: inhibition of tumour cell growth, NCI panel, 48 h
786-0 = system: 786-0
A498 = system: A498
A549 = system: A549
ACHN = system: ACHN
CAKI-1 = system: CAKI-1
COLO 205 = system: COLO 205
DU-145 = system: DU-145
EKVX = system: EKVX
HCC 2998 = system: HCC 2998
HCT-116 = system: HCT-116
HCT-15 = system: HCT-15
HL-60 = system: HL-60
HOP-62 = system: HOP-62
HOP-92 = system: HOP-92
HT-29 = system: HT-29
Hs-578T = system: Hs-578T
IGROV-1 = system: IGROV-1
K562 = system: K562
KM12 = system: KM12
LOX IMVI = system: LOX IMVI
M14 = system: M14
MCF7 = system: MCF7
MDA-MB-435 = system: MDA-MB-435
MDA-N = system: MDA-N
Malme-3M = system: Malme-3M
NCI-H23 = system: NCI-H23
NCI-H460 = system: NCI-H460
NCI-H522 = system: NCI-H522
NCI/ADR-RES = system: NCI/ADR-RES
OVCAR-3 = system: OVCAR-3
OVCAR-4 = system: OVCAR-4
OVCAR-5 = system: OVCAR-5
OVCAR-8 = system: OVCAR-8
PC-3 = system: PC-3
SF-268 = system: SF-268
SF-295 = system: SF-295
SF-539 = system: SF-539
SK-MEL-28 = system: SK-MEL-28
SK-MEL-2 = system: SK-MEL-2
SK-MEL-5 = system: SK-MEL-5
SK-OV-3 = system: SK-OV-3
SN12C = system: SN12C
SNB-19 = system: SNB-19
SNB-75 = system: SNB-75
SR = system: SR
SW-620 = system: SW-620
T47D = system: T47D
TK-10 = system: TK-10
U-251 = system: U-251
UACC-257 = system: UACC-257
UACC-62 = system: UACC-62
MDA-MB-231 = system: MDA-MB-231
NCI-H226 = system: NCI-H226
RXF 393 = system: RXF 393
UO-31 = system: UO-31
BT-549 = system: BT-549
CCRF-CEM = system: CCRF-CEM
MOLT-4 = system: MOLT-4
RPMI-8226 = system: RPMI-8226

## CC1(C)CS(=O)(=O)CC(C)(C)C(=N/N)/C1=N\N
786-0
  GI50: > 100 µM (inactive)
A498
  GI50: > 100 µM (inactive)
A549
  GI50: > 100 µM (inactive)
ACHN
  GI50: > 100 µM (inactive)
CAKI-1
  GI50: > 100 µM (inactive)
COLO 205
  GI50: > 100 µM (inactive)
DU-145
  GI50: > 100 µM (inactive)
EKVX
  GI50: > 100 µM (inactive)
HCC 2998
  GI50: > 100 µM (inactive)
HCT-116
  GI50: > 100 µM (inactive)
HCT-15
  GI50: > 100 µM
HL-60
  GI50: > 100 µM (inactive)
HOP-62
  GI50: > 100 µM (inactive)
HOP-92
  GI50: > 100 µM (inactive)
HT-29
  GI50: > 100 µM (inactive)
Hs-578T
  GI50: > 100 µM (inactive)
IGROV-1
  GI50: > 100 µM (inactive)
K562
  GI50: > 100 µM (inactive)
KM12
  GI50: > 100 µM (inactive)
LOX IMVI
  GI50: > 100 µM (inactive)
M14
  GI50: > 100 µM (inactive)
MCF7
  GI50: > 100 µM (inactive)
MDA-MB-435
  GI50: > 100 µM (inactive)
MDA-N
  GI50: > 100 µM (inactive)
Malme-3M
  GI50: > 100 µM (inactive)
NCI-H23
  GI50: > 100 µM (inactive)
NCI-H460
  GI50: > 100 µM (inactive)
NCI-H522
  GI50: > 100 µM (inactive)
NCI/ADR-RES
  GI50: > 100 µM (inactive)
OVCAR-3
  GI50: > 100 µM (inactive)
OVCAR-4
  GI50: > 100 µM (inactive)
OVCAR-5
  GI50: > 100 µM (inactive)
OVCAR-8
  GI50: > 100 µM (inactive)
PC-3
  GI50: > 100 µM (inactive)
SF-268
  GI50: > 100 µM (inactive)
SF-295
  GI50: > 100 µM (inactive)
SF-539
  GI50: > 100 µM (inactive)
SK-MEL-28
  GI50: > 100 µM (inactive)
SK-MEL-2
  GI50: > 100 µM (inactive)
SK-MEL-5
  GI50: > 100 µM (inactive)
SK-OV-3
  GI50: > 100 µM (inactive)
SN12C
  GI50: > 100 µM (inactive)
SNB-19
  GI50: > 100 µM (inactive)
SNB-75
  GI50: > 100 µM (inactive)
SR
  GI50: > 100 µM (inactive)
SW-620
  GI50: > 100 µM (inactive)
T47D
  GI50: > 100 µM (inactive)
TK-10
  GI50: > 100 µM (inactive)
U-251
  GI50: > 100 µM (inactive)
UACC-257
  GI50: > 100 µM (inactive)
UACC-62
  GI50: > 100 µM (inactive)

## CC1(C)CC(=O)C(C(CC(c2ccccc2)c2cc3c(cc2O)OCO3)C2=C(O)CC(C)(C)CC2=O)=C(O)C1 (stereo unspecified)
A498
  GI50: > 10 µM (inactive)
A549
  GI50: > 10 µM (inactive)
ACHN
  GI50: > 10 µM (inactive)
CAKI-1
  GI50: > 10 µM (inactive)
COLO 205
  GI50: > 10 µM (inactive)
DU-145
  GI50: > 10 µM (inactive)
EKVX
  GI50: > 10 µM (inactive)
HCT-116
  GI50: > 10 µM (inactive)
HCT-15
  GI50: > 10 µM
HOP-92
  GI50: > 10 µM (inactive)
HT-29
  GI50: > 10 µM (inactive)
IGROV-1
  GI50: > 10 µM (inactive)
KM12
  GI50: > 10 µM (inactive)
M14
  GI50: > 10 µM (inactive)
MDA-MB-231
  GI50: > 10 µM (inactive)
MDA-MB-435
  GI50: > 10 µM (inactive)
MDA-N
  GI50: > 10 µM (inactive)
NCI-H226
  GI50: > 10 µM (inactive)
NCI-H23
  GI50: > 10 µM (inactive)
NCI/ADR-RES
  GI50: > 10 µM (inactive)
OVCAR-3
  GI50: > 10 µM (inactive)
OVCAR-4
  GI50: > 10 µM (inactive)
OVCAR-5
  GI50: > 10 µM (inactive)
OVCAR-8
  GI50: > 10 µM (inactive)
PC-3
  GI50: > 10 µM (inactive)
RXF 393
  GI50: > 10 µM (inactive)
SF-268
  GI50: > 10 µM (inactive)
SF-295
  GI50: > 10 µM (inactive)
SF-539
  GI50: > 10 µM (inactive)
SK-MEL-5
  GI50: > 10 µM (inactive)
SN12C
  GI50: > 10 µM (inactive)
SNB-19
  GI50: > 10 µM (inactive)
SNB-75
  GI50: > 10 µM (inactive)
SW-620
  GI50: > 10 µM (inactive)
TK-10
  GI50: > 10 µM (inactive)
U-251
  GI50: > 10 µM (inactive)
UO-31
  GI50: > 10 µM (inactive)

## O=S(=O)(O)c1ccc2c(/N=N/c3ccccc3)c(O)ccc2c1
786-0
  GI50: > 100 µM (inactive)
A498
  GI50: > 100 µM (inactive)
BT-549
  GI50: > 100 µM (inactive)
CAKI-1
  GI50: > 100 µM (inactive)
CCRF-CEM
  GI50: > 100 µM (inactive)
COLO 205
  GI50: > 100 µM (inactive)
DU-145
  GI50: > 100 µM (inactive)
EKVX
  GI50: > 100 µM (inactive)
HCC 2998
  GI50: > 100 µM (inactive)
HCT-116
  GI50: > 100 µM (inactive)
HCT-15
  GI50: > 100 µM
HL-60
  GI50: > 100 µM (inactive)
HOP-92
  GI50: > 100 µM (inactive)
IGROV-1
  GI50: > 100 µM (inactive)
KM12
  GI50: > 100 µM (inactive)
M14
  GI50: > 100 µM (inactive)
MCF7
  GI50: > 100 µM (inactive)
MDA-MB-435
  GI50: > 100 µM (inactive)
MOLT-4
  GI50: > 100 µM (inactive)
NCI-H460
  GI50: > 100 µM (inactive)
OVCAR-3
  GI50: > 100 µM (inactive)
OVCAR-5
  GI50: > 100 µM (inactive)
OVCAR-8
  GI50: > 100 µM (inactive)
RXF 393
  GI50: > 100 µM (inactive)
SF-539
  GI50: > 100 µM (inactive)
SK-MEL-28
  GI50: > 100 µM (inactive)
SK-MEL-2
  GI50: > 100 µM (inactive)
SK-MEL-5
  GI50: > 100 µM (inactive)
SK-OV-3
  GI50: > 100 µM (inactive)
SN12C
  GI50: > 100 µM (inactive)
SNB-19
  GI50: > 100 µM (inactive)
SNB-75
  GI50: > 100 µM (inactive)
SR
  GI50: > 100 µM (inactive)
SW-620
  GI50: > 100 µM (inactive)
T47D
  GI50: > 100 µM (inactive)
U-251
  GI50: > 100 µM (inactive)
UACC-257
  GI50: > 100 µM (inactive)
UO-31
  GI50: > 100 µM (inactive)

## COC(=O)C1=CC(NC(=O)OCc2ccccc2)C(C(=O)c2ccccc2)C[C@@H]1Sc1ccccc1 (stereo partly specified)
CCRF-CEM
  GI50: 1.47 µM (inactive)
HL-60
  GI50: 1.09 µM (active)
K562
  GI50: 2.19 µM (inactive)
SR
  GI50: < 0.01 µM (active)

## CNC(=O)CNC(=O)C(NC(=O)CNC(=O)C1CCCN1C(=O)C(C)NC(=O)C(NC(C)=O)C(C)C)C(C)C (stereo unspecified) (Ac-VAPGVG-NHMe; configuration not given here)
786-0
  GI50: > 100 µM (inactive)
A498
  GI50: > 100 µM (inactive)
ACHN
  GI50: > 100 µM (inactive)
CAKI-1
  GI50: > 100 µM (inactive)
CCRF-CEM
  GI50: > 100 µM (inactive)
COLO 205
  GI50: > 100 µM (inactive)
DU-145
  GI50: > 100 µM (inactive)
EKVX
  GI50: > 100 µM (inactive)
HCC 2998
  GI50: > 100 µM (inactive)
HCT-116
  GI50: > 100 µM (inactive)
HCT-15
  GI50: > 100 µM
HL-60
  GI50: > 100 µM (inactive)
HOP-62
  GI50: > 100 µM (inactive)
HOP-92
  GI50: > 100 µM (inactive)
HT-29
  GI50: > 100 µM (inactive)
IGROV-1
  GI50: > 100 µM (inactive)
K562
  GI50: > 100 µM (inactive)
LOX IMVI
  GI50: > 100 µM (inactive)
M14
  GI50: > 100 µM (inactive)
MCF7
  GI50: > 100 µM (inactive)
MDA-MB-231
  GI50: > 100 µM (inactive)
MDA-MB-435
  GI50: > 100 µM (inactive)
MDA-N
  GI50: > 100 µM (inactive)
MOLT-4
  GI50: > 100 µM (inactive)
Malme-3M
  GI50: > 100 µM (inactive)
NCI-H23
  GI50: > 100 µM (inactive)
NCI-H460
  GI50: > 100 µM (inactive)
NCI-H522
  GI50: > 100 µM (inactive)
NCI/ADR-RES
  GI50: > 100 µM (inactive)
OVCAR-3
  GI50: > 100 µM (inactive)
OVCAR-4
  GI50: > 100 µM (inactive)
OVCAR-5
  GI50: > 100 µM (inactive)
OVCAR-8
  GI50: > 100 µM (inactive)
PC-3
  GI50: > 100 µM (inactive)
RPMI-8226
  GI50: > 100 µM (inactive)
SF-268
  GI50: > 100 µM (inactive)
SF-295
  GI50: > 100 µM (inactive)
SF-539
  GI50: > 100 µM (inactive)
SK-MEL-28
  GI50: > 100 µM (inactive)
SK-MEL-2
  GI50: > 100 µM (inactive)
SK-OV-3
  GI50: > 100 µM (inactive)
SN12C
  GI50: > 100 µM (inactive)
SNB-19
  GI50: > 100 µM (inactive)
SR
  GI50: > 100 µM (inactive)
SW-620
  GI50: > 100 µM (inactive)
T47D
  GI50: > 100 µM (inactive)
TK-10
  GI50: > 100 µM (inactive)
U-251
  GI50: > 100 µM (inactive)
UACC-257
  GI50: > 100 µM (inactive)
UACC-62
  GI50: > 100 µM (inactive)
UO-31
  GI50: > 100 µM (inactive)
